Test results reported in patent US12655116B2, “Substituted isophthalic acid diamides” (Bayer Aktiengesellschaft, priority 2020, dated 2026).

Columns and labels:
ALOMY [1] = test: Post-emergence herbicidal action against ALOMY; format: in vivo, Alopecurus myosuroides; settings: Alopecurus myosuroides, 504 h, visual assessment about 3 weeks after treatment vs untreated controls
How it was run: (§1)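 Post-emergence greenhouse test; one-leaf stage, 2–3 wk post-sowing, sandy loam. Foliar spray of WP/EC in water, 600–800 l/ha, +0.2% wetting agent. Visual % action at ~3 wk vs untreated (100% = plants dead).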

VIOTR = test: Post-emergence herbicidal action against VIOTR; format: in vivo, Viola tricolor; settings: Viola tricolor, 504 h
How it was run: as §1

SETVI [2] = test: Pre-emergence herbicidal action against SETVI; format: in vivo, Setaria viridis; settings: Setaria viridis, 504 h
How it was run: (§2)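 Herbicidal effect was assessed 3 weeks after treatment by visual comparison with untreated controls, 100% denoting dead plants. Aqueous WP or EC preparations had been applied at 600 to 800 l/ha with 0.2% wetting agent to the soil covering freshly sown seeds.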

STEME [3] = test: Pre-emergence herbicidal action against STEME; format: in vivo, Stellaria media; settings: Stellaria media, 504 h
How it was run: as §2

MATIN [4] = test: Post-emergence herbicidal action against MATIN; format: in vivo, Matricaria inodora; settings: Tripleurospermum inodorum, 504 h
How it was run: as §1

VERPE [5] = test: Post-emergence herbicidal action against VERPE; format: in vivo, Veronica persica; settings: Veronica persica, 504 h
How it was run: as §1

AVEFA [6] = test: Post-emergence herbicidal action against AVEFA; format: in vivo, Avena fatua; settings: Avena fatua, 504 h, visual assessment about 3 weeks after treatment, 100% = plants have died, 0% = like control plants
How it was run: as §1

STEME [7] = test: Post-emergence herbicidal action against STEME; format: in vivo, Stellaria media; settings: Stellaria media, 504 h
How it was run: as §1

POLCO [8] = test: Post-emergence herbicidal action against POLCO; format: in vivo, Polygonum convolvulus; settings: Fallopia convolvulus, 504 h, dosage 80 g/ha
How it was run: as §1

PHBPU = test: Post-emergence herbicidal action against PHBPU; format: in vivo, Pharbitis purpurea; settings: Ipomoea purpurea, 504 h
How it was run: as §1

VERPE [9] = test: Pre-emergence herbicidal action against VERPE; format: in vivo, Veronica persica; settings: Veronica persica, 504 h
How it was run: as §2

ABUTH [10] = test: Post-emergence herbicidal action against ABUTH; format: in vivo, Abutilon theophrasti; settings: Abutilon theophrasti, 504 h, visual assessment about 3 weeks after treatment vs untreated controls
How it was run: as §1

LOLRI = test: Pre-emergence herbicidal action against LOLRI; format: in vivo, Lolium rigidum; settings: Lolium rigidum, 504 h
How it was run: as §2

ABUTH [11] = test: Pre-emergence herbicidal action against ABUTH; format: in vivo, Abutilon theophrasti; settings: Abutilon theophrasti, 504 h
How it was run: as §2

ALOMY [12] = test: Pre-emergence herbicidal action against ALOMY; format: in vivo, Alopecurus myosuroides; settings: Alopecurus myosuroides, 504 h, pre-emergence
How it was run: as §2

AMARE = test: Pre-emergence herbicidal action against AMARE; format: in vivo, Amaranthus retroflexus; settings: Amaranthus retroflexus, 504 h, 100% = plants have died, 0% = like control plants
How it was run: as §2

AVEFA [13] = test: Pre-emergence herbicidal action against AVEFA; format: in vivo, Avena fatua; settings: Avena fatua, 504 h, pre-emergence
How it was run: as §2

ECHCG = test: Post-emergence herbicidal action against ECHCG; format: in vivo, Echinochloa crus-galli; settings: Echinochloa crus-galli, 504 h
How it was run: as §1

SETVI [14] = test: Post-emergence herbicidal action against SETVI; format: in vivo, Setaria viridis; settings: Setaria viridis, 504 h
How it was run: as §1

MATIN [15] = test: Pre-emergence herbicidal action against MATIN; format: in vivo, Matricaria inodora; settings: Tripleurospermum inodorum, 504 h
How it was run: as §2

HORMU [16] = test: Pre-emergence herbicidal action against HORMU; format: in vivo, Hordeum murinum; settings: Hordeum murinum, 504 h, pre-emergence
How it was run: as §2

POLCO [17] = test: Pre-emergence herbicidal action against POLCO; format: in vivo, Polygonum convolvulus; settings: Fallopia convolvulus, 504 h
How it was run: as §2

HORMU [18] = test: Post-emergence herbicidal action against HORMU; format: in vivo, Hordeum murinum; settings: Hordeum murinum, 504 h
How it was run: as §1

[19] = 80 g/ha, scored visually after 3 weeks vs untreated controls (100% = plants have died, 0% = like control plants)
[20] = 20 g/ha, scored visually after 3 weeks, 100% = plants have died, 0% = like control plants
[21] = 320 g/ha, scored visually after 3 weeks, 100% = plants have died, 0% = like control plants

CNC(=O)c1c(C(F)(F)F)ccc(C(=O)Nc2nnnn2C)c1Cl [Example 1-129]
pest or weed control at 5 g/ha (ALOMY [1]; dosage 5 g/ha): 90% | pest or weed control at 20 g/ha (ALOMY [1]; dosage 20 g/ha): 100% | pest or weed control at 80 g/ha (ALOMY [1]; dosage 80 g/ha): 100% | pest or weed control at 5 g/ha (VIOTR; 5 g/ha): 80% | pest or weed control at 20 g/ha (VIOTR; 20 g/ha): 100% | pest or weed control at 80 g/ha (VIOTR; 80 g/ha): 100% | pest or weed control at 80 g/ha (SETVI [2]; dosage 80 g/ha): 100% | pest or weed control at 320 g/ha (SETVI [2]; dosage 320 g/ha): 100% | pest or weed control at 20 g/ha (STEME [3]; dosage 20 g/ha): 100% | pest or weed control at 80 g/ha (STEME [3]; dosage 80 g/ha): 100% | pest or weed control at 320 g/ha (STEME [3]; dosage 320 g/ha): 100% | pest or weed control at 20 g/ha (MATIN [4]; dosage 20 g/ha): 90% | pest or weed control at 80 g/ha (MATIN [4]; dosage 80 g/ha): 100% | pest or weed control at 5 g/ha (VERPE [5]; 5 g/ha): 80% | pest or weed control at 20 g/ha (VERPE [5]; 20 g/ha): 80% | pest or weed control at 80 g/ha (VERPE [5]; 80 g/ha): 100% | pest or weed control at 20 g/ha (AVEFA [6]; 20 g/ha): 100% | pest or weed control at 80 g/ha (AVEFA [6]; 80 g/ha): 100% | pest or weed control at 20 g/ha (STEME [7]; 20 g/ha): 100% | pest or weed control at 80 g/ha (STEME [7]; 80 g/ha): 100% | pest or weed control at 5 g/ha (STEME [7]; dosage 5 g/ha): 100% | pest or weed control at 80 g/ha (POLCO [8]): 100% | pest or weed control at 5 g/ha (PHBPU; dosage 5 g/ha): 80% | pest or weed control at 20 g/ha (PHBPU; dosage 20 g/ha): 100% | pest or weed control at 80 g/ha (PHBPU; dosage 80 g/ha): 100% | pest or weed control at 80 g/ha (VERPE [9]; dosage 80 g/ha): 100% | pest or weed control at 320 g/ha (VERPE [9]; dosage 320 g/ha): 100% | pest or weed control at 5 g/ha (ABUTH [10]; dosage 5 g/ha): 100% | pest or weed control at 20 g/ha (ABUTH [10]; dosage 20 g/ha): 100% | pest or weed control at 80 g/ha (ABUTH [10]; dosage 80 g/ha): 100% | pest or weed control at 80 g/ha (LOLRI; 80 g/ha): 90% | pest or weed control at 320 g/ha (LOLRI; 320 g/ha): 100% | pest or weed control at 80 g/ha (ABUTH [11]; [19]): 100% | pest or weed control at 320 g/ha (ABUTH [11]; Dosage: 320 g/ha, scored visually after 3 weeks, 100% = plants have died, 0% = like control plants): 100% | pest or weed control at 20 g/ha (ABUTH [11]; dosage 20 g/ha, scored visually after 3 weeks vs untreated controls, 100% = plants have died, 0% = like control plants, read-out: Pre-emergence action against ABUTH (herbicidal activity in percent)): 100% | pest or weed control at 80 g/ha (ALOMY [12]; [19]): 100% | pest or weed control at 20 g/ha (ALOMY [12]; [20]): 90% | pest or weed control at 320 g/ha (ALOMY [12]; [21]): 100% | pest or weed control at 20 g/ha (AMARE; 20 g/ha, scored visually after 3 weeks vs untreated controls): 100% | pest or weed control at 80 g/ha (AMARE; 80 g/ha, scored visually after 3 weeks vs untreated controls): 100% | pest or weed control at 320 g/ha (AMARE; 320 g/ha, scored visually after 3 weeks): 100% | pest or weed control at 80 g/ha (AVEFA [13]; 80 g/ha): 100% | pest or weed control at 20 g/ha (AVEFA [13]; [20]): 100% | pest or weed control at 320 g/ha (AVEFA [13]; [21]): 100% | pest or weed control at 5 g/ha (ECHCG; dosage 5 g/ha): 100% | pest or weed control at 20 g/ha (ECHCG; dosage 20 g/ha): 100% | pest or weed control at 80 g/ha (ECHCG; dosage 80 g/ha): 100% | pest or weed control at 5 g/ha (SETVI [14]; dosage 5 g/ha): 100% | pest or weed control at 20 g/ha (SETVI [14]; dosage 20 g/ha): 100% | pest or weed control at 80 g/ha (SETVI [14]; dosage 80 g/ha): 100% | pest or weed control at 20 g/ha (MATIN [15]; dosage 20 g/ha): 100% | pest or weed control at 80 g/ha (MATIN [15]; dosage 80 g/ha): 100% | pest or weed control at 320 g/ha (MATIN [15]; dosage 320 g/ha): 100% | pest or weed control at 80 g/ha (HORMU [16]; 80 g/ha): 90% | pest or weed control at 320 g/ha (HORMU [16]; 320 g/ha): 100% | pest or weed control at 80 g/ha (POLCO [17]; dosage 80 g/ha): 100% | pest or weed control at 320 g/ha (POLCO [17]; dosage 320 g/ha): 100% | pest or weed control at 5 g/ha (HORMU [18]; dosage 5 g/ha): 90% | pest or weed control at 20 g/ha (HORMU [18]; dosage 20 g/ha): 100% | pest or weed control at 80 g/ha (HORMU [18]; dosage 80 g/ha): 100%
